Assay results taken from US12351557B2, “Chemical compound manufacture, new salt form, and therapeutic uses thereof” (Eustralis Pharmaceuticals Limited (Trading As Pressura …, priority 2018, dated 2025).
Counter-ions that a name gives are not always drawn. Like-named read-outs stand apart in the source and are kept apart here. One block for each compound: values may come before it.

How the values were obtained:
[1] = Qualitative solubility of free base in 50 solvents; format: physicochemical; details: for Qualitative solubility in solvents: organic solvents, 50 solvents studied
Text: The solubility of compound of Formula (1) was first qualitatively studied in 50 solvents. In all SAS experiments, the amorphous free base of compound of formula (1) was obtained after evaporation of the experiments.

pKa estimate = format: physicochemical; details: free base
[2] = Hydroscopicity (water sorption at 90% RH); format: physicochemical
[3] = Polymorphism risk assessment; details: 2HCl salt physicochemical summary
Experimental: Decomposition/melting range temperature and presence of solvate molecules are estimated from thermal analyses. The polymorphism risk was assessed base on the number of identified forms during this work and reproducibility of the salt screen target patterns.

[4] = Solubility of 2HCl salt in solvents; format: physicochemical
Experimental: A summary of the physicochemical characteristics of 2HCl salt of Compound of Formula (1) is provided below.
Solubility: very soluble in water ([…]0.2 mg/μL), freely soluble in ethanol (0.1-0.2 mg/μL), sparingly soluble in 1-propanol and acetonitrile (0.01-0.03 mg/μL).

[5] = pH of solution in purified water; format: physicochemical; details: 5 mg/mL solution in purified water
Experimental: pH: 2 to 3 (5 mg/mL solution in purified water).

[6] = Stability study, samples stored at 40° C./75% RH; format: physicochemical

Qualitative solubility in solvents [1]: very soluble or soluble in many solvents | Behaviour of water as solvent ([1]; water): antisolvent | pKa (pKa estimate; read-out: pKa 1 (estimate)): 7.54 | pKa (pKa estimate; read-out: pKa 2 (estimate)): 4.05
Compound: Cc1ccccc1-c1cc(N2CCN(C)CC2)ncc1C(=O)N(C)Cc1cc(C(F)(F)F)cc(C(F)(F)F)c1 [Compound of Formula (1), N-{[3,5-Bis(trifluoromethyl)phenyl]methyl}-N-methyl-4-(2-methylphenyl)-6-(4-methyl-1-piperazinyl)-3-pyridinecarboxamide]
Qualitative solubility in solvents ([1]; listed as free base): very soluble or soluble in almost all solvents

Hydroscopicity (Water sorption at 90% RH) [2]: 3.2% | Polymorphism [3]: Not detectable | Solubility in 1-propanol ([4]; 1-propanol, sparingly soluble): 10000 to 30000 µg/mL | Solubility in acetonitrile ([4]; acetonitrile, sparingly soluble): 10000 to 30000 µg/mL | Solubility in ethanol ([4]; ethanol, freely soluble): 100000 to 200000 µg/mL | pH [5]: 2 to 3 | Appearance (white to yellow powder) ([6]; 0 months): Complies | Assay (% "as is") ([6]; 0 months): 95.0% | Assay (% anhydrous) ([6]; 0 months): 100.0% | Related Substances: Any other unknown ([6]; 0 months): RRT 0.89: 0.007% | Related Substances: Intermediate 3 ([6]; 0 months): Int 3: 0.69% | Related Substances: RRT - 0.89 ([6]; 0 months): RRT 0.85: 0.34% | Related Substances: RRT - 1.27 ([6]; 0 months): RRT 1.27: 0.27% | Related Substances: Total Impurities ([6]; 0 months): 1.37% | Water Content ([6]; 0 months): 5.0% | pH ([6]; 0 months): 2.31 | Appearance (white to yellow powder) ([6]; 1 month): Complies | Assay (% "as is") ([6]; 1 month): 94.8% | Assay (% anhydrous) ([6]; 1 month): 99.8% | Related Substances: Any other unknown ([6]; 1 month): RRT 0.90: 0.07% | Related Substances: Intermediate 3 ([6]; 1 month): Int 3: 0.71% | Related Substances: RRT - 0.89 ([6]; 1 month): RRT 0.89: 0.36% | Related Substances: RRT - 1.27 ([6]; 1 month): RRT 1.28: 0.27% | Related Substances: Total Impurities ([6]; 1 month): 1.41% | Water Content ([6]; 1 month): 4.99% | pH ([6]; 1 month): 2.39 | Appearance (white to yellow powder) ([6]; 3 months): Complies | Assay (% "as is") ([6]; 3 months): 94.5% | Assay (% anhydrous) ([6]; 3 months): 100.1% | Related Substances: Any other unknown ([6]; 3 months): RRT 0.91: 0.05% | Related Substances: Intermediate 3 ([6]; 3 months): Int 3: 0.71% | Related Substances: RRT - 0.89 ([6]; 3 months): RRT 0.90: 0.36% | Related Substances: RRT - 1.27 ([6]; 3 months): RRT 1.27: 0.26 | Related Substances: Total Impurities ([6]; 3 months): 1.38% | Water Content ([6]; 3 months): 5.58% | pH ([6]; 3 months): 2.33 | Appearance (white to yellow powder) ([6]; 6 months): Complies | Assay (% "as is") ([6]; 6 months): 94.6% | Assay (% anhydrous) ([6]; 6 months): 99.7% | Related Substances: Any other unknown ([6]; 6 months): RRT 0.91: 0.06% | Related Substances: Intermediate 3 ([6]; 6 months): Int 3: 0.71% | Related Substances: RRT - 0.89 ([6]; 6 months): RRT 0.90: 0.35% | Related Substances: RRT - 1.27 ([6]; 6 months): RRT 1.27: 0.27% | Related Substances: Total Impurities ([6]; 6 months): 1.39% | Water Content ([6]; 6 months): 5.17% | pH ([6]; 6 months): 2.47 | Appearance (white to yellow powder) ([6]; Initial Release): Complies | Assay (% "as is") ([6]; Initial Release): 98.3% | Assay (% anhydrous) ([6]; Initial Release): 99.3% | Related Substances: Intermediate 3 ([6]; Initial Release): Int 3: 0.71% | Related Substances: RRT - 0.89 ([6]; Initial Release): RRT 0.87: 0.35% | Related Substances: RRT - 1.27 ([6]; Initial Release): RRT 1.27: 0.28% | Related Substances: Total Impurities ([6]; Initial Release): 1.34% | Water Content ([6]; Initial Release): 1.0% | pH ([6]; Initial Release): 2.31
Compound: Cc1ccccc1-c1cc(N2CCN(C)CC2)ncc1C(=O)N(C)Cc1cc(C(F)(F)F)cc(C(F)(F)F)c1 [Compound of formula (1) 2HCl salt]
